Source: paper PMC8836832, “Novel Aurora A Kinase Inhibitor Fangchinoline Enhances Cisplatin–DNA Adducts and Cisplatin Therapeutic Efficacy in OVCAR-3 Ovarian Cancer Cells-Derived Xenograft Model” (International Journal of Molecular Sciences, 2022)
Where a name gives a salt, the structure may show the parent alone.

Key:
SKOV3 = experiment: cells; design: MTT cell viability assay, absorbance at 575 nm, SK-OV-3 cells; conditions: Homo sapiens, SK-OV-3, 48 h
Protocol: (§1) The cell viability effects of 12 candidate compounds were evaluated by MTT assay and compared against a control group (medium containing 0.1% DMSO). The cells were seeded in 96-well plates and pre-cultured for 24 h (1 × 10^5 cells/well). The cells were then incubated for 48 h with the 12 identified compounds (at 0, 3.125, 6.25, 12.5, 25, 50, or 100 µM) dissolved in 0.1% DMSO. After 48 h, MTT solution (2.5 mg/mL in DMEM) was added to the cells and incubated for 1 h. DMSO was added to dissolve the purple crystals, and the absorbance values were measured at 575 nm using a spectrophotometer (SPECTROstar Nano; BMG LABTECH, Offenburg, Germany). Each treatment group has four biological replicates (n = 4). The IC50 values for each compound in each cell line were obtained using the results of the MTT assay and calculated using the GraphPad Prism 6 program (GraphPad Software, Inc., San Diego, CA, USA). A CI higher than 1.0 indicates an antagonistic effect, a CI equal to 1.0 indicates an additive effect, and a CI lower than 1.0 indicates a synergistic effect.

MDH2774 = experiment: cells; design: MTT cell viability assay, absorbance at 575 nm, MDAH 2774 cells; conditions: Homo sapiens, MDAH 2774, 48 h
Protocol: as §1

ES2 = experiment: cells; design: MTT cell viability assay, absorbance at 575 nm, ES-2 cells; conditions: Homo sapiens, ES-2, 48 h
Protocol: as §1

OVCAR3 = experiment: cells; design: MTT cell viability assay, absorbance at 575 nm, OVCAR-3 cells; conditions: Homo sapiens, OVCAR-3, 48 h
Protocol: as §1

[1] = target: T1, Aurora A kinase (Aurora A) (Homo sapiens, UniProt O14965); experiment: in vitro Aurora A kinase assay kit (Promega V1931, luminescence), dose-dependent at […]; supported by CETSA in MDAH […] and OVCAR-3 cells; type: biochemical
T1 construct: gene AURKA
T1 sequence (O14965 1-403): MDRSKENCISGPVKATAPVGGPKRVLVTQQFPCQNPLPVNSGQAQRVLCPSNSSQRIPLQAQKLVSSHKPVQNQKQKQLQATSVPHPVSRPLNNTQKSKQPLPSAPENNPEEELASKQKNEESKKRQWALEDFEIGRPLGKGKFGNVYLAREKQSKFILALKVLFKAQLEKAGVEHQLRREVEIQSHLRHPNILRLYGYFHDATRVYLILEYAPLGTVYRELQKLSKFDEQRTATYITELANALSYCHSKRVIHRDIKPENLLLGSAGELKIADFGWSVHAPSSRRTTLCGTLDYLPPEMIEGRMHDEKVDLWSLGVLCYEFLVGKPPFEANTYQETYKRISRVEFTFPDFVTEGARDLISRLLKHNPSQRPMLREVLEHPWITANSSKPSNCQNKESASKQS

Row | Compound | IC50 (SKOV3) [µM] | IC50 (OVCAR3) [µM] | IC50 (MDH2774) [µM] | IC50 (ES2) [µM] | in vitro Aurora A kinase assay kit (Promega V1931, luminescence), dose-dependent [1]
1 | COc1cc2c(cc1OC)-c1cc3ccc(OC)c(OC)c3c[n+]1CC2 [Palmatine hydrochloride] | 59.33 ± 0.02 | – | 51.29 ± 0.34 | – | –
2 | O=C(O)c1cc(O)c2c(c1)[C@@H]([C@H]1c3cc(C(=O)O)cc(O)c3C(=O)c3c(O[C@@H]4O[C@H](CO)[C@@H](O)[C@H](O)[C@H]4O)cccc31)c1cccc(O[C@@H]3O[C@H](CO)[C@@H](O)[C@H](O)[C@H]3O)c1C2=O [Sennoside B] | > 100 | – | – | – | –
3 | COc1ccc2cc3[n+](cc2c1OC)CCc1cc2c(cc1-3)OCO2 [Berberine] | 39.38 ± 0.02 | 20.56 ± 0.021 | 12.8 ± 1.24 | 87.6 ± 0.02 | –
4 | C/C=C(\C)C(=O)N[C@@H](c1ccccc1)[C@@H](O)C(=O)O[C@H]1C[C@@]2(O)[C@@H](OC(=O)c3ccccc3)[C@@H]3[C@]4(OC(C)=O)CO[C@@H]4C[C@H](O)[C@@]3(C)C(=O)[C@H](OC(C)=O)C(=C1C)C2(C)C [Cephalomannine] | 10.79 ± 0.01 | 41.78 ± 0.013 | 41.72 ± 0.01 | – | –
5 | O=c1cc(-c2ccc(O)c(-c3c(O)cc(O)c4c(=O)cc(-c5ccc(O)cc5)oc34)c2)oc2cc(O)cc(O)c12 [Amentoflavone] | 78.9 ± 0.8 | – | 99.32 ± 0.03 | – | –
6 | COc1ccc2cc1Oc1ccc(cc1)C[C@H]1c3cc(c(OC)cc3CCN1C)Oc1c(O)c(OC)cc3c1[C@H](C2)N(C)CC3 [fangchinoline] | 11.7 ± 1.2 | 9.66 ± 0.3 | 8.71 ± 0.24 | 25.1 ± 0.65 | Figure 2C shows that fangchinoline treatment significantly decreased Aurora A enzymatic activity in a dose-dependent manner.

Now from value to compound, other results behind:

Row | IC50 (SKOV3) [µM] | IC50 (OVCAR3) [µM] | Compound | IC50 (MDH2774) [µM] | IC50 (ES2) [µM] | in vitro Aurora A kinase assay kit (Promega V1931, luminescence), dose-dependent [1]
7 | 26.1 ± 0.49 | 25.4 ± 0.68 | CN1CCc2cc3c(cc2C(=O)Cc2cc4c(cc2C1)OCO4)OCO3 [Protopine] | – | – | –
8 | 26 ± 0.44 | 25.8 ± 1.21 | O=C(/C=C/c1ccc(O)cc1)c1ccc(O)cc1O [Isoliquiritigenin] | 50.36 ± 0.48 | 51.46 ± 0.32 | –
9 | 25.1 ± 1.9 | 24.9 ± 0.74 | O=C(/C=C/c1ccc(O)cc1)CC(=O)/C=C/c1ccc(O)cc1 [Bisdemethoxycurcumin] | 26 ± 0.53 | 45.5 ± 0.5 | –
10 | 21.48 ± 0.01 | 40.59 ± 0.015 | CC(=O)O[C@@]12CO[C@@H]1C[C@H](O)[C@@]1(C)C(=O)[C@H](O)C3=C(C)[C@@H](OC(=O)[C@H](O)[C@@H](NC(=O)OC(C)(C)C)c4ccccc4)C[C@@](O)([C@@H](OC(=O)c4ccccc4)[C@H]21)C3(C)C [Docetaxel] | 24.55 ± 0.011 | 50.38 ± 0.25 | –
11 | 34.7 ± 0.02 | 22.64 ± 0.03 | Cc1cc(O)c2c(c1)C(=O)c1cc(O)cc(O)c1C2=O [Emodin] | 34.32 ± 0.021 | 50.2 ± 2.09 | –
